Laboratory results published in patent publication US7704995B2 (Exelixis, Inc., priority 2003, dated 2010).

Biological target: T1, Chk1 (Homo sapiens, UniProt O14757)
T1 construct: purchased Upstate Biotechnology
T1 sequence (O14757 1-476): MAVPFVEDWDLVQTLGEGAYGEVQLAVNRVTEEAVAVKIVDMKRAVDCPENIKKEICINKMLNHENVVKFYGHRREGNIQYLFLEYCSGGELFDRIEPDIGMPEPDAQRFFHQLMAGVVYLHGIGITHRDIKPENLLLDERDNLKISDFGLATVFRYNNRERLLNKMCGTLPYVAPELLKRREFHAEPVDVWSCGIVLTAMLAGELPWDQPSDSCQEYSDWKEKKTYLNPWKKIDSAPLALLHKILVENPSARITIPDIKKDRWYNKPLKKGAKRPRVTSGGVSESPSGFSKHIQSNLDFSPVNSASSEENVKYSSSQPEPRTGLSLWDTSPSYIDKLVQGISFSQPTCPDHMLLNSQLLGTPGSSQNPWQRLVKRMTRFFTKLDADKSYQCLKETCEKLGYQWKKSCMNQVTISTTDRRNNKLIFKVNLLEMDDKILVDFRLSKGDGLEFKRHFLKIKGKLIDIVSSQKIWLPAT
Assay: Chk1 kinase assay: incorporation of γ-33P ATP into immobilized myelin basic protein
Type: biochemical
Details: Table 11, Chk1 only; class symbols A-D; read-out: Chk1 IC50
Summary of the method: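 Radiometric filter-free format: Chk1 10 nM, 10 μM ATP; Chk2 20 nM, 30 μM ATP; γ-33P ATP tracer; immobilized MBP substrate; Hepes pH 7.6, 10 mM MgCl2, 1 mM DTT; 1 h RT; 1% DMSO. Scintillation counting of washed plates. IC50/Ki from curve fit.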

SMILES	IC50 [nM]
Nc1ncc(-c2cccc(NC(=O)Cc3c(F)c(F)c(F)c(F)c3F)c2)nc1C(=O)N[C@H]1CCCNC1 [Example 887, 3-amino-6-(3-{[(pentafluorophenyl)acetyl]amino}phenyl)-N-[(3S)-piperidin-3-yl]pyrazine-2-carboxamide]	< 50
Nc1ncc(-c2cccc(NC(=O)Cc3ccc(F)cc3Cl)c2)nc1C(=O)N[C@H]1CCCNC1 [Example 888, 3-amino-6-(3-{[(2-chloro-4-fluorophenyl)acetyl]amino}phenyl)-N-[(3S)-piperidin-3-yl]pyrazine-2-carboxamide]	< 50
CSc1ccc(CC(=O)Nc2cccc(-c3cnc(N)c(C(=O)N[C@H]4CCCNC4)n3)c2)cc1 [Example 889, 3-amino-6-[3-({[4-(methylthio)phenyl]acetyl}amino)phenyl]-N-[(3S)-piperidin-3-yl]pyrazine-2-carboxamide]	< 50
Nc1ncc(-c2cccc(NC(=O)Cc3ccc(Cl)cc3Cl)c2)nc1C(=O)N[C@H]1CCCNC1 [Example 890, 3-amino-6-(3-{[(2,4-dichlorophenyl)acetyl]amino}phenyl)-N-[(3S)-piperidin-3-yl]pyrazine-2-carboxamide]	< 50
Nc1ncc(-c2cccc(NC(=O)c3cc(-c4ccc(Cl)cc4)cs3)c2)nc1C(=O)N[C@H]1CCCNC1 [Example 891, 3-amino-6-[3-({[4-(4-chlorophenyl)-2-thienyl]carbonyl}amino)phenyl]-N-[(3S)-piperidin-3-yl]pyrazine-2-carboxamide]	< 50
Nc1ncc(-c2cccc(CNC(=O)c3ccc(Br)cc3)c2)nc1C(=O)N[C@H]1CCCNC1 [Example 892, 3-amino-6-[3-({[(4-bromophenyl)carbonyl]amino}methyl)phenyl]-N-[(3S)-piperidin-3-yl]pyrazine-2-carboxamide]	< 50
Nc1ncc(-c2cccc(CNC(=O)c3ccc4ccccc4c3)c2)nc1C(=O)N[C@H]1CCCNC1 [Example 893, 3-amino-6-(3-{[(naphthalen-2-ylcarbonyl)amino]methyl}phenyl)-N-[(3S)-piperidin-3-yl]pyrazine-2-carboxamide]	< 50
Nc1ncc(-c2cccc(OCCN3CCN(c4ccccc4)CC3)c2)nc1C(=O)N[C@H]1CCCNC1 [Example 894, 3-amino-6-(3-{[2-(4-phenylpiperazin-1-yl)ethyl]oxy}phenyl)-N-[(3S)-piperidin-3-yl]pyrazine-2-carboxamide]	< 50
Nc1ncc(-c2cccc(CNC(=O)Nc3ccc(Br)cc3)c2)nc1C(=O)N[C@H]1CCCNC1 [Example 895]	< 50
Nc1ncc(-c2cccc(CNC(=O)Nc3ccc4ccccc4c3)c2)nc1C(=O)N[C@H]1CCCNC1 [Example 896]	< 50
Nc1ncc(-c2cccc(NC(=O)Cc3ccc(F)cc3F)c2)nc1C(=O)N[C@H]1CCCNC1 [Example 897, 3-amino-6-(3-{[(2,4-difluorophenyl)acetyl]amino}phenyl)-N-[(3S)-piperidin-3-yl]pyrazine-2-carboxamide]	< 50
Nc1ncc(-c2cccc(NC(=O)Cc3ccccc3F)c2)nc1C(=O)N[C@H]1CCCNC1 [Example 898, 3-amino-6-(3-{[(2-fluorophenyl)acetyl]amino}phenyl)-N-[(3S)-piperidin-3-yl]pyrazine-2-carboxamide]	< 50
Nc1ncc(-c2cccc(NC(=O)c3ccc(-c4cc(C(F)(F)F)ccc4Cl)o3)c2)nc1C(=O)N[C@H]1CCCNC1 [Example 899, 3-amino-6-{3-[({5-[2-chloro-5-(trifluoromethyl)phenyl]furan-2-yl}carbonyl)amino]phenyl}-N-[(3S)-piperidin-3-yl]pyrazine-2-carboxamide]	< 50
CN(C)c1ccc(C(=O)Nc2cccc(-c3cnc(N)c(C(=O)N[C@H]4CCCNC4)n3)c2)c2ccccc12 [Example 900, 3-amino-6-[3-({[4-(dimethylamino)naphthalen-1-yl]carbonyl}amino)phenyl]-N-[(3S)-piperidin-3-yl]pyrazine-2-carboxamide]	< 50
Nc1ncc(-c2cccc(NC(=O)c3ccc(-c4cnns4)cc3)c2)nc1C(=O)N[C@H]1CCCNC1 [Example 901, 3-amino-N-[(3S)-piperidin-3-yl]-6-[3-({[4-(1,2,3-thiadiazol-5-yl)phenyl]carbonyl}amino)phenyl]pyrazine-2-carboxamide]	< 50
Cc1cc(C(=O)Nc2cccc(-c3cnc(N)c(C(=O)N[C@H]4CCCNC4)n3)c2)n(C)n1 [Example 902, 3-amino-6-(3-{[(1,3-dimethyl-1H-pyrazol-5-yl)carbonyl]amino}phenyl)-N-[(3S)-piperidin-3-yl]pyrazine-2-carboxamide]	< 50
CN(C)c1ccc(C(=O)NCc2cccc(-c3cnc(N)c(C(=O)N[C@H]4CCCNC4)n3)c2)cc1 [Example 903, 3-amino-6-{3-[({[4-(dimethylamino)phenyl]carbonyl}amino)methyl]phenyl}-N-[(3S)-piperidin-3-yl]pyrazine-2-carboxamide]	< 50
Nc1ncc(-c2cccc(OCCO)c2)nc1C(=O)N[C@H]1CCCNC1 [Example 904, 3-amino-6-{3-[(2-hydroxyethyl)oxy]phenyl}-N-[(3S)-piperidin-3-yl]pyrazine-2-carboxamide]	< 50
Nc1ncc(-c2cccc(CNS(=O)(=O)c3ccc4c(c3)CCO4)c2)nc1C(=O)N[C@H]1CCCNC1 [Example 905, 3-amino-6-(3-{[(2,3-dihydro-1-benzofuran-5-ylsulfonyl)amino]methyl}phenyl)-N-[(3S)-piperidin-3-yl]pyrazine-2-carboxamide]	< 50
Nc1ncc(-c2cccc(CNS(=O)(=O)c3ccc4c(c3)OCCCO4)c2)nc1C(=O)N[C@H]1CCCNC1 [Example 906, 3-amino-6-(3-{[(3,4-dihydro-2H-1,5-benzodioxepin-7-ylsulfonyl)amino]methyl}phenyl)-N-[(3S)-piperidin-3-yl]pyrazine-2-carboxamide]	< 50
Nc1ncc(-c2cccc(CNS(=O)(=O)c3ccc4cccnc4c3)c2)nc1C(=O)N[C@H]1CCCNC1 [Example 907, 3-amino-N-[(3S)-piperidin-3-yl]-6-(3-{[(quinolin-7-ylsulfonyl)amino]methyl}phenyl)pyrazine-2-carboxamide]	50 to 1000
Nc1ncc(-c2cccc(CNC(=O)Nc3ccc(-c4ccccc4)cc3)c2)nc1C(=O)N[C@H]1CCCNC1 [Example 908, 3-amino-6-[3-({[(biphenyl-4-ylamino)carbonyl]amino}methyl)phenyl]-N-[(3S)-piperidin-3-yl]pyrazine-2-carboxamide]	< 50
Nc1ncc(-c2cccc(NC(=O)c3ccc(Br)cc3F)c2)nc1C(=O)N[C@H]1CCCNC1 [Example 909, 3-amino-6-(3-{[(4-bromo-2-fluorophenyl)carbonyl]amino}phenyl)-N-[(3S)-piperidin-3-yl]pyrazine-2-carboxamide]	< 50
Nc1ncc(-c2cccc(NC(=O)c3cnc4ccccc4c3)c2)nc1C(=O)N[C@H]1CCCNC1 [Example 910, N-[3-(5-amino-6-{[(3S)-piperidin-3-ylamino]carbonyl}pyrazin-2-yl)phenyl]quinoline-3-carboxamide]	< 50
COc1ccc2c(CC(=O)Nc3cccc(-c4cnc(N)c(C(=O)N[C@H]5CCCNC5)n4)c3)coc2c1 [Example 911, 3-amino-6-[3-({[6-(methyloxy)-1-benzofuran-3-yl]acetyl}amino)phenyl]-N-[(3S)-piperidin-3-yl]pyrazine-2-carboxamide]	< 50
Nc1ncc(-c2cccc(NC(=O)c3ccccc3-c3ccc(C(F)(F)F)cc3)c2)nc1C(=O)N[C@H]1CCCNC1 [Example 912, 3-amino-N-[(3S)-piperidin-3-yl]-6-[3-({[4′-(trifluoromethyl)biphenyl-2-yl]carbonyl}amino)phenyl]pyrazine-2-carboxamide]	< 50
Nc1ncc(-c2cccc(NC(=O)Cc3cc(C(F)(F)F)cc(C(F)(F)F)c3)c2)nc1C(=O)N[C@H]1CCCNC1 [Example 913, 3-amino-6-[3-({[3,5-bis(trifluoromethyl)phenyl]acetyl}amino)phenyl]-N-[(3S)-piperidin-3-yl]pyrazine-2-carboxamide]	< 50
Nc1ncc(-c2cccc(CNC(=O)Nc3ccc(F)cc3F)c2)nc1C(=O)N[C@H]1CCCNC1 [Example 914, 3-amino-6-{3-[({[(2,4-difluorophenyl)amino]carbonyl}amino)methyl]phenyl}-N-[(3S)-piperidin-3-yl]pyrazine-2-carboxamide]	< 50
Nc1ncc(-c2cccc(CNS(=O)(=O)c3ccccc3C(F)(F)F)c2)nc1C(=O)N[C@H]1CCCNC1 [Example 915, 3-amino-N-[(3S)-piperidin-3-yl]-6-{3-[({[2-(trifluoromethyl)phenyl]sulfonyl}amino)methyl]phenyl}pyrazine-2-carboxamide]	50 to 1000
Nc1ncc(-c2cccc(CNS(=O)(=O)c3ccc(OC(F)(F)F)cc3)c2)nc1C(=O)N[C@H]1CCCNC1 [Example 916, 3-amino-N-[(3S)-piperidin-3-yl]-6-(3-{[({4-[(trifluoromethyl)oxy]phenyl}sulfonyl)amino]methyl}phenyl)pyrazine-2-carboxamide]	50 to 1000
